Data on 22 compounds can be found in PubChem BioAssay AID256 (DTP/NCI, 2004).

For the test, the system named is CD2F1 mice, L1210 leukemia ip, survival T/C. Nature of the test: NCI In Vivo Anticancer Drug Screen. Data for tumor model L1210 Leukemia (intraperitoneal) in CD2F1 (CDF1) mice. The conditions noted are these: endpoint: mean survival time, higher = longer survival. The procedure, abridged:
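Tumor-bearing mice (transplanted tumor) were split into treated and vehicle control groups, and the measured endpoint of each treated group was divided by that of its vehicle controls.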

The mark [1] stands for this setting: dose: 25.0 mg/kg/injection, schedule: Q01DX009 (ip), vehicle: saline.
Where [2] appears, read: dose: 50.0 mg/kg/injection, schedule: Q01DX009 (ip), vehicle: saline.
[3] abbreviates: dose: 100.0 mg/kg/injection, schedule: Q01DX009 (ip), vehicle: saline with Tween-80.
The mark [4] stands for this setting: dose: 100.0 mg/kg/injection, schedule: Q04DX003 (ip), vehicle: saline with Tween-80.
[5] abbreviates: dose: 200.0 mg/kg/injection, schedule: Q01DX009 (ip), vehicle: saline with Tween-80.
The mark [6] stands for this setting: dose: 200.0 mg/kg/injection, schedule: Q04DX003 (ip), vehicle: saline with Tween-80.
Setting [7] is: dose: 400.0 mg/kg/injection, schedule: Q01DX009 (ip), vehicle: saline with Tween-80.
The mark [8] stands for this setting: dose: 400.0 mg/kg/injection, schedule: Q04DX003 (ip), vehicle: saline with Tween-80.
Setting [9] is: dose: 100.0 mg/kg/injection, schedule: Q01DX001 (ip), vehicle: saline with Tween-80.
[10] abbreviates: dose: 200.0 mg/kg/injection, schedule: Q01DX001 (ip), vehicle: saline with Tween-80.
Where [11] appears, read: dose: 400.0 mg/kg/injection, schedule: Q01DX001 (ip), vehicle: saline with Tween-80.
Setting [12] is: dose: 50.0 mg/kg/injection, schedule: Q01DX009 (ip), vehicle: saline with Tween-80.

Where “and” joins values, the source holds several entries; their conditions need not be identical. Equal entries are not always repeated. Inconclusive results and toxic doses are left out.

Turning to `CCCCCCCCCCCCCCCC[N+]1(C)CCSCC1`, the T/C runs as follows: (dose: 0.78 mg/kg/injection, schedule: Q01DX009 (ip), vehicle: saline) 93 % of control and 103 % of control; (dose: 1.56 mg/kg/injection, schedule: Q04DX003 (ip), vehicle: saline) 106 % of control; (dose: 3.13 mg/kg/injection, schedule: Q01DX001 (ip), vehicle: saline) 104 % of control; (dose: 3.13 mg/kg/injection, schedule: Q04DX003 (ip), vehicle: saline) 110 % of control; (dose: 6.25 mg/kg/injection, schedule: Q01DX001 (ip), vehicle: saline) 104 % of control; (dose: 6.25 mg/kg/injection, schedule: Q04DX003 (ip), vehicle: saline) 104 % of control. For the same compound, the T/C reads like this: (dose: 12.5 mg/kg/injection, schedule: Q01DX001 (ip), vehicle: saline with Tween-80) 97 % of control; (dose: 12.5 mg/kg/injection, schedule: Q01DX001 (ip), vehicle: saline) 104 % of control; (dose: 12.5 mg/kg/injection, schedule: Q04DX003 (ip), vehicle: saline) 102 % of control; (dose: 25.0 mg/kg/injection, schedule: Q01DX001 (ip), vehicle: saline with Tween-80) 95 % of control; (dose: 25.0 mg/kg/injection, schedule: Q01DX001 (ip), vehicle: saline) 104 % of control; under setting [1], 87 % of control. The T/C is, setting by setting: (dose: 25.0 mg/kg/injection, schedule: Q04DX002 (ip), vehicle: saline) 88 % of control; (dose: 50.0 mg/kg/injection, schedule: Q01DX001 (ip), vehicle: saline with Tween-80) 100 % of control.
Turning to `CCc1nc(N)nc(N)n1`, the T/C reads like this: under setting [2], 104 % of control; (dose: 100.0 mg/kg/injection, schedule: Q01DX009 (ip), vehicle: saline) 100 % of control; (dose: 200.0 mg/kg/injection, schedule: Q01DX009 (ip), vehicle: saline) 104 % of control.
Turning to `Cc1ccc([N+](=O)[O-])cc1NC(=O)Oc1ccc(Cl)cc1`, the T/C runs as follows: under setting [3], 98 % of control; under setting [4], 92 % of control; under setting [5], 98 % of control; under setting [6], 95 % of control; under setting [7], 91 % of control; under setting [8], 88 % of control.
Consider `COc1ccc(C=Nc2ccc(C)cc2)cc1`, for which the T/C is 108 % of control under setting [3]; 103 % of control under setting [4]; 98 % of control under setting [5]; 115 % of control under setting [6]; 104 % of control under setting [7]; 116 % of control under setting [8].
`FC(F)(F)c1cccc(NC2=NCCO2)c1`: the T/C by setting is: under setting [9], 92 % of control; under setting [10], 93 % of control; under setting [11], 91 % of control.
In the case of `O=c1[nH]c(=O)n(CCCO)cc1F`, the T/C is 111 % of control (dose: 12.5 mg/kg/injection, schedule: Q01DX005 (ip), vehicle: water); 115 % of control and 103 % of control (dose: 25.0 mg/kg/injection, schedule: Q01DX005 (ip), vehicle: water); 122 % of control and 123 % of control (dose: 50.0 mg/kg/injection, schedule: Q01DX005 (ip), vehicle: water); 96 % of control (dose: 200.0 mg/kg/injection, schedule: Q01DX005 (ip), vehicle: water).
`CC[N+](CC)=c1ccc2nc3c(cc(N)c4ccccc43)oc-2c1`: the T/C runs as follows: (dose: 6.25 mg/kg/injection, schedule: Q01DX009 (ip), vehicle: saline sonified) 97 % of control; (dose: 6.25 mg/kg/injection, schedule: Q04DX003 (ip), vehicle: saline with Tween-80) 101 % of control; (dose: 12.5 mg/kg/injection, schedule: Q01DX009 (ip), vehicle: saline sonified) 104 % of control; (dose: 12.5 mg/kg/injection, schedule: Q04DX003 (ip), vehicle: saline with Tween-80) 101 % of control; (dose: 25.0 mg/kg/injection, schedule: Q04DX003 (ip), vehicle: saline with Tween-80) 98 % of control.
With `Cc1cc(C)c(C(=O)c2ccc(-c3ccccc3)cc2)c(C)c1`, the T/C reads like this: under setting [3], 95 % of control; under setting [4], 98 % of control; under setting [5], 98 % of control; under setting [6], 106 % of control; under setting [7], 91 % of control; under setting [8], 98 % of control.
As for `CSCC(NC(=O)OCc1ccccc1)C(=O)O` (centres undefined), the T/C under setting [4] is 101 % of control and the T/C under setting [6] is 101 % of control.
Consider `Cc1ccc2nc(-c3ccc4nc(-c5ccc(N)cc5)sc4c3)sc2c1`, for which the T/C is 94 % of control under setting [12], 97 % of control under setting [3] and 94 % of control under setting [5].
`CC1(C)OC(C(O)COC(=O)c2ccccc2)C(C(O)COC(=O)c2ccccc2)O1` (centres undefined): the T/C is, setting by setting: (dose: 50.0 mg/kg/injection, schedule: Q01DX009 (ip), vehicle: Klucel (hydroxypropylcellulose) (HPC)) 98 % of control; (dose: 100.0 mg/kg/injection, schedule: Q01DX009 (ip), vehicle: Klucel (hydroxypropylcellulose) (HPC)) 98 % of control; (dose: 200.0 mg/kg/injection, schedule: Q01DX009 (ip), vehicle: Klucel (hydroxypropylcellulose) (HPC)) 102 % of control.
For the compound `CN(C)/N=C/c1ccc(-c2ccccc2)cc1`, the T/C is, setting by setting: under setting [9], 101 % of control; under setting [10], 103 % of control; under setting [11], 112 % of control.
For `CN(CCC#N)C(=O)Nc1ccc(Cl)cc1`, the T/C is, setting by setting: (dose: 100.0 mg/kg/injection, schedule: Q04DX002 (ip), vehicle: other) 106 % of control; (dose: 200.0 mg/kg/injection, schedule: Q04DX002 (ip), vehicle: other) 101 % of control; (dose: 400.0 mg/kg/injection, schedule: Q04DX002 (ip), vehicle: other) 106 % of control.
In the case of `CCOC(=O)C1(C(=O)OCC)CC2(COC(c3ccccc3)OC2)C1`, the T/C runs as follows: (dose: 100.0 mg/kg/injection, schedule: Q04DX003 (ip), vehicle: saline) 97 % of control; (dose: 200.0 mg/kg/injection, schedule: Q04DX003 (ip), vehicle: saline) 97 % of control; (dose: 400.0 mg/kg/injection, schedule: Q04DX003 (ip), vehicle: saline) 95 % of control.
Turning to `CC#CC#CC(=O)c1ccccc1`, the T/C by setting is: (dose: 5.0 mg/kg/injection, schedule: Q01DX001 (ip), vehicle: saline) 97 % of control; (dose: 10.0 mg/kg/injection, schedule: Q01DX001 (ip), vehicle: saline) 100 % of control.
Turning to `Cc1ccc([N+](=O)[O-])cc1NC(=O)NNC(=O)CNC(=O)Nc1cccc([N+](=O)[O-])c1`, the T/C was 88 % of control under setting [3], 86 % of control under setting [5] and 104 % of control under setting [7].
As for `COC(=O)CCCCCCCCCC(=O)OC`, the T/C runs as follows: (dose: 100.0 mg/kg/injection, schedule: Q04DX002 (ip), vehicle: saline with Tween-80) 87 % of control; (dose: 200.0 mg/kg/injection, schedule: Q04DX002 (ip), vehicle: saline with Tween-80) 102 % of control; (dose: 400.0 mg/kg/injection, schedule: Q04DX002 (ip), vehicle: saline with Tween-80) 98 % of control.
Turning to `CC(=O)Nc1c(Cl)c(Cl)c(Cl)c2c1-c1ccc(Cl)cc1C2`, the T/C is 95 % of control under setting [9]; 98 % of control under setting [3]; 101 % of control under setting [10]; 103 % of control under setting [5]; 100 % of control under setting [11]; 103 % of control under setting [7].
For `CCN(CC)CCOc1ccc2c(c1)C(=O)c1cc(OCCN(CC)CC)ccc1-2`, the T/C runs as follows: (dose: 12.5 mg/kg/injection, schedule: Q01DX009 (ip), vehicle: saline) 95 % of control; under setting [1], 98 % of control; under setting [2], 101 % of control.
As to `COc1cc(OC)c(NC(=O)Nc2ccc(Cl)c(C(F)(F)F)c2)cc1Cl`, the T/C was 93 % of control under setting [12], 93 % of control under setting [3] and 93 % of control under setting [5].
As to `OCC1OC(n2cnc3c(SSc4ncnc5c4ncn5C4OC(CO)C(O)C4O)ncnc32)C(O)C1O` (centres undefined), the T/C was 115 % of control (dose: 178.0 mg/kg/injection, schedule: Q01DX009 (ip), vehicle: saline) and 150 % of control (dose: 400.0 mg/kg/injection, schedule: Q01DX009 (ip), vehicle: saline).
With `NC(=O)c1ccccc1NC(=O)Nc1ccc(Cl)c(C(F)(F)F)c1`, the T/C is, setting by setting: under setting [12], 87 % of control; under setting [3], 96 % of control; under setting [5], 93 % of control.
